Laboratory results as given in US8912121B2, “Herbicidal compositions comprising 4-amino-3-chloro-5-fluoro-6-(4-chloro-2-fluoro-3-methoxyphenyl)pyridine-2-carboxylic acid or a derivative thereof and certain PS II inhibitors” (Dow Agrosciences LLC, priority 2012, dated 2014).

Columns and labels:
[1] = test system: VERPE (Veronica persica, Persian speedwell); experiment: Postemergence herbicidal activity of mixtures in cereal crops, greenhouse; assay type: in vivo, Veronica persica Poir.
Method: (§1) Seeds of the desired test plant species were planted in Sun Gro MetroMix® 306 planting mixture, which typically has a pH of 6.0 to 6.8 and an organic matter content of about 30 percent, in plastic pots with a surface area of 103.2 square centimeters (cm^2). When required to ensure good germination and healthy plants, a fungicide treatment and/or other chemical or physical treatment was applied. The plants were grown for 7-36 days in a greenhouse with an approximate 14 hour photoperiod which was maintained at about 18° C. during the day and about 17° C. during the night. Nutrients and water were added on a regular basis and supplemental lighting was provided with overhead metal halide 1000-Watt lamps as necessary. The plants were employed for testing when they reached the second or third true leaf stage.
(§2) Treatments consisted of the benzyl ester of 4-amino-3-chloro-5-fluoro-6-(4-chloro-2-fluoro-3-methoxy-phenyl)pyridine-2-carboxylic acid (Compound A), formulated as an SC, a second cereal herbicide alone and then both in combination.
(§3) Other herbicidal components were applied on an active ingredient basis and included PSII-inhibiting herbicides.
(§4) Measured aliquots of benzyl ester of 4-amino-3-chloro-5-fluoro-6-(4-chloro-2-fluoro-3-methoxy-phenyl)pyridine-2-carboxylic acid (Compound A) were placed in 25 milliliter (mL) glass vials and diluted in a volume of 1.25% (v/v) Agri-Dex® crop oil concentrate to obtain stock solutions. Compound requirements are based upon a 12 mL application volume at a rate of 187 liters per hectare (L/ha). Spray solutions of the second cereal herbicide and experimental compound mixtures were prepared by adding the stock solutions to the appropriate amount of dilution solution to form 12 mL spray solution with active ingredients in two- and three-way combinations. Formulated compounds were applied to the plant material with an overhead Mandel track sprayer equipped with an 8002E nozzle calibrated to deliver 187 L/ha over an application area of 0.503 square meters (m^2) at a spray height of 18 inches (46 cm) above average plant canopy. Control plants were sprayed in the same manner with the solvent blank.
(§5) The treated plants and control plants were placed in a greenhouse as described above and watered by sub-irrigation to prevent wash-off of the test compounds. After 20-22 days, the condition of the test plants as compared with that of the control plants was determined visually and scored on a scale of 0 to 100 percent where 0 corresponds to no injury and 100 corresponds to complete kill.
(§6) Colby's equation was used to determine the herbicidal effects expected from the mixtures (Colby, S. R. 1967. Calculation of the synergistic and antagonistic response of herbicide combinations. Weeds 15:20-22).
(§7) The following equation was used to calculate the expected activity of mixtures containing two active ingredients, A and B: Expected=A+B−(A×B/100)

[2] = test system: FIMMI (Fimbristylis miliacea, globe fringerush); experiment: In-water applied mixtures, transplanted paddy rice, greenhouse; assay type: in vivo, Fimbristylis miliacea (L.) Vahl; settings: 19 DAA
Method: Weed seeds or nutlets of the desired test plant species were planted in puddled soil (mud) prepared by mixing a shredded, non-sterilized mineral soil (50.5 percent silt, 25.5 percent clay, and 24 percent sand, with a pH of about 7.6 and an organic matter content of about 2.9 percent) and water at a 1:1 volumetric ratio. The prepared mud was dispensed in 365 mL aliquots into 16-ounce (oz.) non-perforated plastic pots with a surface area of 86.59 square centimeters (cm^2) leaving a headspace of 3 centimeters (cm) in each pot Mud was allowed to dry overnight prior to planting or transplanting. Rice seeds were planted in Sun Gro MetroMix® 306 planting mixture, which typically has a pH of 6.0 to 6.8 and an organic matter content of about 30 percent, in plastic plug trays. Seedlings at the second or third leaf stage of growth were transplanted into 840 mL of mud contained in 32-oz. non-perforated plastic pots with a surface area of 86.59 cm^2 4 days prior to herbicide application. The paddy was created by filling the headspace of the pots with 2.5 to 3 cm of water. When required to ensure good germination and healthy plants, a fungicide treatment and/or other chemical or physical treatment was applied. The plants were grown for 4-22 days in a greenhouse with an approximate 14 h photoperiod which was maintained at about 29° C during the day and 26° C. during the night. Nutrients were added as Osmocote® (19:6:12, N:P:K+ minor nutrients) at 2 g per 16-oz. pot and 4 g per 32-oz. pot. Water was added on a regular basis to maintain the paddy flood, and supplemental lighting was provided with overhead metal halide 1000-Watt lamps as necessary. The plants were employed for testing when they reached the first through fourth true leaf stage.
Treatments consisted of the acid or esters of 4-amino-3-chloro-5-fluoro-6-(4-chloro-2-fluoro-3-methoxy-phenyl)pyridine-2-carboxylic acid (compound A) each formulated as an SC (suspension concentrate) and various herbicidal components alone and in combination. Forms of compound A were applied on an acid equivalent basis.
Other herbicidal components were applied on an active ingredient basis and included photosystem II (PSII)-inhibits propanil formulated as […] bentazon-sodium formulated as Basagran®, and simetryne (technical grade material).
Treatment requirements for each compound or herbicidal component were calculated based upon the rates being tested, the concentration of active ingredient or acid equivalent in the formulation, an application volume of 2 mL per component per pot, and an application area of 86.59 cm^2 per pot.
For formulated compounds, a measured amount was placed in an individual 100 or 200 mL glass vial and was dissolved in a volume of 1.25% (v/v) Agri-Dex® crop oil concentrate to obtain application solutions.
For technical grade compounds, a weighed amount was placed in an individual 100 to 200 mL glass vial and was dissolved in a volume of acetone to obtain concentrated stock solutions. […]
The treated plants and control plants were placed in a greenhouse as described above and water was added as needed to maintain a paddy flood. After approximately 3 weeks the condition of the test plants as compared with that of the untreated plants was determined visually and scored on a scale of 0 to 100 percent where 0 corresponds to no injury or growth inhibition and 100 corresponds to complete kill. […]

[3] = test system: GALAP (Galium aparine, catchweed bedstraw); experiment: Postemergence herbicidal activity of mixtures in cereal crops, greenhouse; assay type: in vivo, Galium aparine L.
Method: as §1, §2, §3, §4, §5, §6, §7

[4] = test system: CHEAL (Chenopodium album, common lambsquarters); experiment: as above; assay type: in vivo, Chenopodium album L.
Method: as §1, §2, §3, §4, §5
Colby's equation was used to determine the herbicidal effects expected from the mixtures (Colby, S. R. 1967. Calculation of the synergistic and antagonistic response of herbicide combinations. Weeds 15:20-22). […]

[5] = test system: KCHSC (Kochia scoparia, kochia); experiment: as above; assay type: in vivo, Kochia scoparia (L.) Schrad.
Method: as §1, §2, §3, §4, §5, §6, §7

[6] = Compound A Benzyl Ester 5 g ai/ha
[7] = Compound A Benzyl Ester 10 g ai/ha
[8] = Compound A Benzyl Ester 2.5 g ai/ha

SMILES: COc1c(Cl)ccc(-c2nc(C(=O)OCc3ccccc3)c(Cl)c(N)c2F)c1F [Compound A Benzyl Ester, benzyl ester of 4-amino-3-chloro-5-fluoro-6-(4-chloro-2-fluoro-3-methoxy-phenyl)pyridine-2-carboxylic acid]
- Visual Weed Control (%) - 21 DAA VERPE Obs [1, 6]: 17%
- Visual Weed Control (%) - 21 DAA VERPE Obs [1, 7]: 23%
- Visual Weed Control (%) Obs ([2]; 8 g ae/ha): 0%
- Visual Weed Control (%) Obs ([2]; 16 g ae/ha): 0%
- Visual Weed Control (%) Obs ([2]; 32 g ae/ha): 85%
- Visual Weed Control (%) - 21 DAA GALAP Obs [3, 6]: 66%
- Visual Weed Control (%) - 21 DAA GALAP Obs [3, 7]: 77%
- Visual Weed Control (%)-21 DAA CHEAL Obs [4, 8]: 50%
- Visual Weed Control (%)-21 DAA CHEAL Obs [4, 6]: 58%
- Visual Weed Control (%)-21 DAA KCHSC Obs [5, 8]: 20%
- Visual Weed Control (%)-21 DAA KCHSC Obs [5, 6]: 41%
- Visual Weed Control (%)-21 DAA KCHSC Obs [5, 7]: 62%
